Read-outs that look alike come from different tables or passages of the source.
Columns and labels:
PDE10 from pig striatum = PDE10 from pig striatum (Sus scrofa, UniProt A0A287B941); assay: Inhibition of PDE10 from pig striatum ([3H]-cAMP SPA); assay type: biochemical
human recombinant PDE10A = target: T1, human recombinant PDE10A (Homo sapiens, UniProt Q9Y233); assay: Inhibition of PDE10, human recombinant PDE10A ([3H]-cAMP SPA); assay type: biochemical
T1 construct: made in house; host or cells: SF21 insect cells (baculovirus)
Description: The gene was than inserted into a baculovirus vector, ligated with the baculovirus DNA. The enzyme-protein was expressed in SF21-cells. The enzyme was isolated from these cells by harvesting the cells by a centrifugation at 200 g to collect the cells. The cells were resuspended in 50 mM Tris-HCl/5 mM MgCl2 buffer (pH=7.4) and lysed by a sonication of the cells. The cytosolic PDE10A was obtained by a centrifugation at 48000 g for 1 h in the supernatant and stored at −70° C. PDE10 activity was determined in a one step procedure in microtiterplates. […] Nonspecific activity was tested without the enzyme. The reaction was initiated by addition of the substrate solution and was carried out at 37° C. for 30 minutes. Enzymatic activity was stopped by addition of 25 μl YSi-SPA-beads (Amersham-Pharmacia). One hour later the mixture was measured in a liquid scintillation counter for microtiterplates (Microbeta Trilux). To pipette the incubation mixture a robot Biomek (Fa. Beckman) is used. […] For determination of IC50 values the Hill-plot, 2-parameter-model, was used.

[1] = rats; Kostowski et al. 1976; cited from earlier work
[2] = rats; Kostowski et al. 1976; cited from earlier work; remark: listed apart in the source
[3] = target: PDE10 from guinea pig striatum (Cavia porcellus, UniProt A0A286XN47); assay: Inhibition of PDE10 from guinea pig striatum ([3H]-cAMP SPA); assay type: biochemical; conditions: Method B
Description: (§1) The phosphodiesterase isoenzyme 10 (PDE10) activity was determined in preparations of rat, pig and guinea pig striatum respectively. Striatum from male Wistar rats (180-200 g), male hybrid pigs (150 kg) and male guinea pigs (CRL (HA), 500 g) respectively were collected and frozen at −70° C. At the day of preparation 0.5 g striatum was homogenized in 10 ml 50 mM Tris/Mg-buffer at 4° C. and centrifuged for one hour at 100000 g. The supernatant is called the cytosolic fraction and was removed and stored on ice. The pellet was resuspended in the same buffer, but containing 1% Triton and incubated for 45 min at 4° C. Both fractions were independently applied onto a 5 ml Hi Trap™ QHP column at the Akta-FPLC. After washing the columns the bound PDE protein was eluted with an increasing sodium chloride gradient (0 mM-500 mM sodium chloride) in 50 mM Tris/Mg-buffer at 4° C. for the cytosolic fraction and in the presence of 1% Triton for the membrane fraction. […] The fractions with PDE10-activity were pooled and frozen in aliquots until use at −20° C. PDE10 activity was determined in a one step procedure in microtiterplates. […] Nonspecific activity was tested without the enzyme. […] One hour later the mixture was measured in a liquid scintillation counter for microtiterplates (Microbeta Trilux). […]

[4] = rats; Kostowski et al. 1976; cited from earlier work; remark: listed apart in the source
PDE10 from rat striatum = target: T2, PDE10 from rat striatum (Rattus norvegicus, UniProt Q9QYJ6); assay: Inhibition of PDE10 from rat striatum ([3H]-cAMP SPA); assay type: biochemical; conditions: Method B, read-out: Km-value for the substrate
T2 construct: from tissue; host or cells: rat (Wistar) striatum, FPLC fractions
T2 sequence (Q9QYJ6 1-794): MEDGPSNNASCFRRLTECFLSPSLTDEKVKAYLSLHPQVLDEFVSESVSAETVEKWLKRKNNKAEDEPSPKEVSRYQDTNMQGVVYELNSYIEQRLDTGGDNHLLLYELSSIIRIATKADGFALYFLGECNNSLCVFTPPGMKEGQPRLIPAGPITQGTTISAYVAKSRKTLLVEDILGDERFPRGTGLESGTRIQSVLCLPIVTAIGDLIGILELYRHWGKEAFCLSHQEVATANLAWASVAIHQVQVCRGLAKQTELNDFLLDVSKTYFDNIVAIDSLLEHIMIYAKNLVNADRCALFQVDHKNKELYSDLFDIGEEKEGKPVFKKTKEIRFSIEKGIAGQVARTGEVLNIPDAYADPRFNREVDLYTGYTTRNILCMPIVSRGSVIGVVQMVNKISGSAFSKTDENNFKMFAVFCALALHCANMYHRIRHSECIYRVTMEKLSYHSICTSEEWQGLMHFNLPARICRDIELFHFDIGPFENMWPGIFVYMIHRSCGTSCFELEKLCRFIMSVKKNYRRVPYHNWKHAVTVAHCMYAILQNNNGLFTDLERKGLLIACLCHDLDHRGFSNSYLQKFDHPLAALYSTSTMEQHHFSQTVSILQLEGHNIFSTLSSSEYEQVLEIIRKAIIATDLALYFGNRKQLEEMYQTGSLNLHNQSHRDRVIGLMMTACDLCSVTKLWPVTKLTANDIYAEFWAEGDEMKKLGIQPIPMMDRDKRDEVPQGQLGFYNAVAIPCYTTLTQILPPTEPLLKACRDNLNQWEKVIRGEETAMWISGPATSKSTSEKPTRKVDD
Description: as §1

[5] = target: Phosphodiesterase (PDE) 10A (Homo sapiens, UniProt Q9Y233); conditions: Soderling et al. 1999; cited from earlier work
[6] = Table 7, read-out: PDE10 pig IC50
[7] = Table 7, read-out: Human PDE10 (IC50 nM)

T1 sequence (Q9Y233 1-779 isoform Q9Y233-1): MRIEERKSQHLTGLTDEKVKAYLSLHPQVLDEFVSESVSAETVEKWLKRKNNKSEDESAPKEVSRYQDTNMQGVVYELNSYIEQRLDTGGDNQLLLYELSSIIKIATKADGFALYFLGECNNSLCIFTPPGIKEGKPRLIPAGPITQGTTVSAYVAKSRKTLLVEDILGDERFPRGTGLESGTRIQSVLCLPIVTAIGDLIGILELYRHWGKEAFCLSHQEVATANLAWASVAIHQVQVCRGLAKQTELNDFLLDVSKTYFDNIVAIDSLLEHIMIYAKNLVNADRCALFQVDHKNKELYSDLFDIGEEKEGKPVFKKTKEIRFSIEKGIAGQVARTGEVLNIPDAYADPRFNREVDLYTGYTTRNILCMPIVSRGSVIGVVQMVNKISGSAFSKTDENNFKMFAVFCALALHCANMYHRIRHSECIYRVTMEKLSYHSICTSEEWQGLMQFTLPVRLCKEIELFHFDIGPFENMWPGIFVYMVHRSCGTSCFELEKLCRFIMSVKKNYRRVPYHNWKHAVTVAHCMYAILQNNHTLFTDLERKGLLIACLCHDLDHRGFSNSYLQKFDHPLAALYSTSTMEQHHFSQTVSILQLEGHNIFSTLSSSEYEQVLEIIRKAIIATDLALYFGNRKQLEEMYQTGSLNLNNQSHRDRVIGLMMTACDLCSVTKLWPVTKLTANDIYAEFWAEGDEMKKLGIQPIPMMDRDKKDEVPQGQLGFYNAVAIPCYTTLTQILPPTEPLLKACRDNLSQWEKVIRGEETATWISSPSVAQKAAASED
Sequence of Phosphodiesterase (PDE) 10A (Q9Y233 whole entry): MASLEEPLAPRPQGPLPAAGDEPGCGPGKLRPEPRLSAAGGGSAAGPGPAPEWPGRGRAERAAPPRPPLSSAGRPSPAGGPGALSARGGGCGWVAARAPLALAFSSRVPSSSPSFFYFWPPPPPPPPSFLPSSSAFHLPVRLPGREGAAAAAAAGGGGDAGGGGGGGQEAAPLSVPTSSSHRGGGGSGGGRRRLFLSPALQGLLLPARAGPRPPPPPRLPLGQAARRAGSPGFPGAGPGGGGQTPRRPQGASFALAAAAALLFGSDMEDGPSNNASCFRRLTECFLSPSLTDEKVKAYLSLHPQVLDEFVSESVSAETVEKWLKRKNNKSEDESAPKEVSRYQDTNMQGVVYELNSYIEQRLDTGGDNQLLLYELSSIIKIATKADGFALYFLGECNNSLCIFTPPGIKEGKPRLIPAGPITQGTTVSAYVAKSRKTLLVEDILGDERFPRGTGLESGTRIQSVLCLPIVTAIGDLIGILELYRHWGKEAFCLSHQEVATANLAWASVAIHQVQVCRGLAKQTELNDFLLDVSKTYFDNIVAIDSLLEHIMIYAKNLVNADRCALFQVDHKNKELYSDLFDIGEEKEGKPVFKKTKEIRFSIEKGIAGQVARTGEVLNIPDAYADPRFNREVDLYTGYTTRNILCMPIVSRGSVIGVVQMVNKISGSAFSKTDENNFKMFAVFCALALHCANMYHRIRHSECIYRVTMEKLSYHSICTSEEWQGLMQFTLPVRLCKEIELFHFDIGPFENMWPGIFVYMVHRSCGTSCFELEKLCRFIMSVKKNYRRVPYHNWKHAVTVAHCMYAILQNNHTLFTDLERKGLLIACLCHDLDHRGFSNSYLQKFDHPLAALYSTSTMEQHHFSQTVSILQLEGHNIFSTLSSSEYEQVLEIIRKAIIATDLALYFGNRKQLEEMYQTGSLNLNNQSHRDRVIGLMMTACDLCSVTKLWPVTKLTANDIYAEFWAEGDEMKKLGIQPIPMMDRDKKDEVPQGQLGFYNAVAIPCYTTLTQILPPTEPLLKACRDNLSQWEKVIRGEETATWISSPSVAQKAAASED
Sequence of PDE10 from guinea pig striatum (A0A286XN47 1-773): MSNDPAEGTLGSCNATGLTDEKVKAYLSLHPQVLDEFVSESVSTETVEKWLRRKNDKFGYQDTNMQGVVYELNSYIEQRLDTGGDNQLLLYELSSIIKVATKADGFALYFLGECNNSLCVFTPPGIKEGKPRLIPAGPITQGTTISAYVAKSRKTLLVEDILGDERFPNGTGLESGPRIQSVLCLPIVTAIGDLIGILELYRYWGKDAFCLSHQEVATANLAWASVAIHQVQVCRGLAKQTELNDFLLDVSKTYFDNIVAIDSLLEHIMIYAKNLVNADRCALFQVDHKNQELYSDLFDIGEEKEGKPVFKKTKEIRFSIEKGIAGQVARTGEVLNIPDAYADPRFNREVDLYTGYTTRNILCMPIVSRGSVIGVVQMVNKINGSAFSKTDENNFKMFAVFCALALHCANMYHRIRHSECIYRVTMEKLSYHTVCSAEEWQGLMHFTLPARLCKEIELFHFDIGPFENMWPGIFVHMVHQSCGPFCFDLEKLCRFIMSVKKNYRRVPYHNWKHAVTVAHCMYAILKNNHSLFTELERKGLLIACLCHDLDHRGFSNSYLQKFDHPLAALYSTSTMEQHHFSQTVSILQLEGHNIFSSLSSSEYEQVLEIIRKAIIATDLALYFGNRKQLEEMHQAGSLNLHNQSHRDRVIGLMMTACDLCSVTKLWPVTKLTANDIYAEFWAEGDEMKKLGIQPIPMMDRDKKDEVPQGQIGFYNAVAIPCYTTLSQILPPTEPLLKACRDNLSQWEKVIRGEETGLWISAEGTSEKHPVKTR

Structure (SMILES)	IC50 (PDE10 from pig striatum; [6])	IC50 (human recombinant PDE10A; [7])	IC50 (human recombinant PDE10A; Table 9, read-out: hPDE10 IC50)	other results
COc1ccc(Cl)c(-c2nc(C)c3c(C)nc4ccc(OC)nc4n23)c1 [Example 19, 9-(2-Chloro-5-methoxyphenyl)-2-methoxy-6,7-dimethylimidazo[1,5-a]pyrido[3,2-e]pyrazine]	< 10 nM	10 to 100 nM		
COc1ccc2nc(C)c3c(C)nc(-c4ccc(C(F)(F)F)cc4Cl)n3c2n1 [Example 20, 9-[2-Chloro-4-(trifluoromethyl)phenyl]-2-methoxy-6,7-dimethylimidazo[1,5-a]pyrido[3,2-e]pyrazine]	< 10 nM	< 10 nM		
COc1ccc2nc(C)c3c(C)nc(-c4cc(C)ccc4F)n3c2n1 [Example 21, 9-(2-Fluoro-5-methylphenyl)-2-methoxy-6,7-dimethylimidazo[1,5-a]pyrido[3,2-e]pyrazine]	< 10 nM	10 to 100 nM		
COc1ccc2nc(C)c3c(C)nc(-c4cc(C(F)(F)F)ccc4Cl)n3c2n1 [Example 23, 9-[2-Chloro-5-(trifluoromethyl)phenyl]-2-methoxy-6,7-dimethylimidazo[1,5-a]pyrido[3,2-e]pyrazine]	< 10 nM	< 10 nM		
COc1ccc2nc(C)c3c(C)nc(-c4cc(OC(F)(F)F)ccc4Cl)n3c2n1 [Example 24, 9-[2-Chloro-5-(trifluoromethoxy)phenyl]-2-methoxy-6,7-dimethylimidazo[1,5-]pyrido[3,2-e]pyrazine]	10 to 100 nM	10 to 100 nM		
COc1ccc2nc(C)c3c(C)nc(-c4cc(C#N)ccc4Cl)n3c2n1 [Example 25, 4-Chloro-3-(2-methoxy-6,7-dimethylimidazo[1,5-a]pyrido[3,2-e]pyrazin-9-yl)benzonitrile]	< 10 nM	10 to 100 nM		
CCOc1ccc(Cl)c(-c2nc(C)c3c(C)nc4ccc(OC)nc4n23)c1 [Example 26, 9-(2-Chloro-5-ethoxyphenyl)-2-methoxy-6,7-dimethylimidazo[1,5-a]pyrido[3,2-e]pyrazine]	10 to 100 nM	10 to 100 nM		
COc1ccc2nc(C)c3c(C)nc(-c4ccc(N(C)C)nc4)n3c2n1 [Example 178, 5-(2-methoxy-6,7-dimethylimidazo[1,5-a]pyrido[3,2-e]pyrazin-9-yl)-N,N-dimethylpyridin-2-amine]			> 100 nM	
COc1ccc2nc(C)c3c(C)nc(-c4cnn(C)c4)n3c2n1 [Example 180, 2-methoxy-6,7-dimethyl-9-(1-methyl-1H-pyrazol-4-yl)imidazo[1,5-a]pyrido[3,2-e]pyrazine]			10 to 100 nM	
COc1ccc2nc(C)c3c(C)nc(-c4cc[nH]c4)n3c2n1 [Example 181, 2-methoxy-6,7-dimethyl-9-(1H-pyrrol-3-yl)imidazo[1,5-a]pyrido[3,2-e]pyrazine]			10 to 100 nM	
COc1ccc2nc(C)c3c(C)nc(-c4cnn(CC(C)C)c4)n3c2n1 [Example 182, 2-methoxy-6,7-dimethyl-9-[1-(2-methylpropyl)-1H-pyrazol-4-yl]imidazo[1,5-yl}imidazo[1,5-a]pyrido[3,2-e]pyrazine]			> 100 nM	
COc1cncc(-c2nc(C)c3c(C)nc4ccc(OC)nc4n23)c1 [Example 184, 2-methoxy-9-(5-methoxypyridin-3-yl)-6,7-dimethylimidazo[1,5-a]pyrido[3,2-e]pyrazine]			< 10 nM	
COc1ccc2nc(C)c3c(C)nc(-c4ccc(N5CCOCC5)nc4)n3c2n1 [Example 187, 2-methoxy-6,7-dimethyl-9-(6-morpholin-4-ylpyridin-3-yl)imidazo[1,5-a]pyrido[3,2-e]pyrazine]			> 100 nM	
COc1ccc2nc(C)c3c(C)nc(-c4cccc(N5CCOCC5)c4)n3c2n1 [Example 188, 2-methoxy-6,7-dimethyl-9-(3-morpholin-4-ylphenyl)imidazo[1,5-a]pyrido[3,2-e]pyrazine]			> 100 nM	
CCCn1cc(-c2nc(C)c3c(C)nc4ccc(OC)nc4n23)cn1 [Example 189, 2-methoxy-6,7-dimethyl-9-(1-propyl-1H-pyrazol-4-yl)imidazo[1,5-a]pyrido[3,2-e]pyrazine]			> 100 nM	
COc1ccc2nc(C)c3c(C)nc(-c4cnn(CCN5CCOCC5)c4)n3c2n1 [Example 190, 2-methoxy-6,7-dimethyl-9-[1-(2-morpholin-4-ylethyl)-1H-pyrazol-4-yl]imidazo[1,5-a]pyrido[3,2-e]pyrazine]			> 100 nM	
COc1ccc(Cc2nccc3cc(OC)c(OC)cc23)cc1OC [Papaverine, papaverine]				haloperidol-induced catalepsy [1]: increases haloperidol-induced catalepsy in rats; dopamine concentration in rat brain [2]: reducing dopamine concentration in rat brain; IC50 [3]: 77 nM; apomorphine-induced stereotypes [4]: reduces apomorphine-induced stereotypes in rats; IC50 (PDE10 from pig striatum; Method A, PDE10 from striatum of pig): 103 nM; IC50 (PDE10 from pig striatum; Method B, PDE10 from striatum of pig, read-out: IC50): 110 nM
Nc1nc2c(ncn2[C@@H]2O[C@@H]3COP(=O)(O)O[C@H]3[C@H]2O)c(=O)[nH]1 [cGMP]				Km (PDE10 from rat striatum): 1.8 µM; Km [5]: 3 µM; Km (PDE10 from pig striatum; Method B, pig striatum, read-out: Km-value for the substrate): 2.2 µM

From patent publication US20090143361A1, “Pyrido[3,2-E]Pyrazines, Process For Preparing The Same, And Their Use As Inhibitors Of Phosphodiesterase 10” (ELBION GMBH, priority 2007, published 2009)
